One may read the IC50 as the midpoint of a concentration-inhibition curve. A high value points to a need for much substance.

These results are taken from ChEMBL document CHEMBL1142102, “Cytotoxic germacrane-type sesquiterpenes, pimarane-type diterpenes, and a naphthalene derivative from Wollastonia biflora” (J Nat Prod, 2007).

A short description of this test: Cytotoxicity against human BEL-7402 cells after 72 hrs by SRB assay. Conditions: Bel-7402, 72 h. It counts as cell-based. (The SRB assay estimates cell density from bound dye.)
The compound `C=C(C)C(=O)O[C@@H]1C[C@H](CO)CC/C=C(/CO)C[C@H]2OC(=O)C(=C)[C@H]12` came in with an IC50 of 1720 nM.
Next, `C=C(C)C(=O)O[C@@H]1C[C@H](CO)CC/C=C(/C=O)C[C@H]2OC(=O)C(=C)[C@H]12`: 1500 nM.
For `C=C1C(=O)O[C@@H]2C/C(CO)=C\CC[C@@H](CO)C[C@@H](OC(=O)/C(C)=C\C)[C@@H]12`, half-maximal inhibition (IC50) required 3000 nM.
